These results are taken from patent US20260265256A1 (IMPACT THERAPEUTICS (SHANGHAI), INC., priority 2023, published 2026).

Assay [1] deals with recombinant poly(ADP-ribose) polymerase 2 (PARP2) (Homo sapiens, UniProt Q9UGN5). In words: PARP2 chemiluminescent assay. The note with it: PARP2 enzyme activity, chemiluminescence, 40 ng enzyme/well. The assay is classed as biochemical. The method, then:
The solution of recombinant poly(ADP-ribose) polymerase 1 and 2 (PARP1 and PARP2) (40 ng enzyme/well) and the compounds to be tested were mixed, respectively. The solutions were added to a 96-well plate coated with histone mixture, incubated at room temperature for 1 h, then 50 μL 0.3 ng/mL Streptavidin-HRP was added to each well. The plates were incubated for 30 minutes at room temperature. Finally, the plates were treated with streptavidin-HRP followed by addition of the ELISA ECL substrate to produce chemiluminescence that can be measured using a chemiluminescence reader. Inhibition of the tested compound to PARP1/2 enzyme activity was calculated according to the following formula. [formula] IC50 value is obtained by fitting the s-shaped dose response curve equation by using XL Fit software.

Another assay deals with MDA-MB-436 cells. As to the kind of experiment: Growth inhibition assay against BRCA mutant human breast cancer MDA-MB-436 cell line (CCK-8, 7 days). The assay is classed as cell-based. The conditions noted are these: 168 h, MDA-MB-436, 7 days, read-out: IC50 (nM), proliferation of human breast cancer cells MDA-MB-436. The method, then:
The cells were cultured in complete medium (DMEM medium+10% FBS+Insulin+glutathione). When the confluence reached about 80%, cells were digested and gently dispensed from the bottom of the dish with a 1 mL pipette. Cell suspension was collected and centrifuged at 500 rpm for 3 min. The supernatant was discarded, and the cell pellet were re-suspended in complete medium. The cells were seeded into a culture dish at an appropriate proportion, and then cultured in a 5% CO2 incubator at 37° C. The assay was carried out when the cells were in optimum condition and the confluence was reached 80%. Cells in the logarithmic growth phase were taken to centrifugate, and the culture supernatant was removed. The cells were resuspended in refresh complete medium and counted. The resuspended cells were seeded at 3000/well in a 96-well plate and incubated at 37° C., 5% CO2 incubator overnight. […] The solution was mixed by oscillation. 0.10% DMSO was used as the control.
The next day, the 96-well plate inoculated with cells was taken out from the incubator, and the culture supernatant was removed. Then fresh medium of 195 uL/well and 5 μL/well of 40× test compound solution as mentioned above were added into the 96 well plate, respectively. Finally, the plate was incubated for 7 days in a 37° C. 5% CO2 incubator. The medium containing compound was changed on the fourth day. After 7 days, 20 μL of CCK-8 was added to each well and shaken gently, then was cultured for 4 hours. The plate was shaken for 5 min after incubation, the absorbance values of 450 nm or 650 nm wavelengths were recorded respectively (OD=absorbance value of 450 nm−absorbance value of 650 nm) by using the multifunction readout instrument.
Data were analyzed by software GraphPad Prism 6.0. The inhibitory activity of compounds on cell proliferation was plotted using cell survival rate against the compound concentration as coordinates. Cell survival rate %=(ODcompound−ODbackground)/(ODDMSO−ODbackground)×100.
Table 2 summarizes the inhibitory effect data (IC50) of the compounds on the proliferation of human breast cancer cells MDA-MB-436.

For the next assay, the target named is T1, PDE3A (Homo sapiens, UniProt Q14432).
T1 construct: purchased Sino Biological 11908-H20B1
T1 sequence (Q14432 669-1141 limits assumed): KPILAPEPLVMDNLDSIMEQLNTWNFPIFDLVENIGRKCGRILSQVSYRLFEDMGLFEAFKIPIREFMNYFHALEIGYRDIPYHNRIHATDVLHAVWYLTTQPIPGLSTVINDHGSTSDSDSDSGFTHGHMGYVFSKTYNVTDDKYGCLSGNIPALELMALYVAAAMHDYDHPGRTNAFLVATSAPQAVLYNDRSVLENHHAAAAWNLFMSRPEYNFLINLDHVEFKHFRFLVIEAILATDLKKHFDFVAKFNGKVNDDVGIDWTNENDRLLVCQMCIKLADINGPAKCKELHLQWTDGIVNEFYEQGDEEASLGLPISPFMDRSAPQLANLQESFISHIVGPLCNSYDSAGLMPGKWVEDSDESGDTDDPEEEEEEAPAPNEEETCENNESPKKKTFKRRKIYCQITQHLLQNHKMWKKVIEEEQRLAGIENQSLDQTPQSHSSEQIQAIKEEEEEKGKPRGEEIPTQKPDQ
As to the kind of experiment: PDE3A fluorescence polarization (FP) assay. In kind it is biochemical. The conditions noted are these: 2 nM PDE3A, 0.2 μM FAM-cAMP, read-out: IC50 (μM), PDE3A enzyme activity. The method, then: A PDE3A fluorescence polarization (FP) assay in a multi-step format was performed using black, round bottom 384-well plates (Corning, 4514). The testing compounds were serially diluted from stock solutions to 11 concentrations with a 3-fold dilution factor using DMSO. Fifty nL of compound dilutions was mixed with 5 μL of reaction buffer (10 mM Tris-HCl, pH 7.2, 10 mM MgCl2, 0.05% NaN3, 0.1% phosphate-free BSA) containing 0.2 μM FAM-cAMP (BPS, 60200) and 2 nM PDE3A (Sino Biological, 11908-H20B1) enzyme, and incubated for 60 min at 25° C. Afterwards, 15 μL binding agent mixture (Molecular Devices, R8124) was added to each well and the plate was incubated for 60 min at 25° C. The plate was loaded to a BMG PHERAstar FSX to read Fluorescence Polarization (FP) values at a setting of: Ex: 485 nm and Em: 520 nm. Emission light intensity with polarizers parallel (Em|) and emission light intensity with polarizers perpendicular (Em⊥) were recorded. The Polarization (mP) values were calculated using the following formula: mP=(SignalEm|−SignalEm⊥)/(SignalEm|+SignalEm⊥).
Data analysis: • 1) The inhibition % of a compound dose is calculated as:
[formula] • wherein mPMin and mPMax refer to the polarization readings in the condition of substrate only and substrate+enzyme, respectively. • 2) The IC50 values were calculated from non-linear curve fitting using following regression equation using a commercial curve fitting software GraphPad Prism 9.2.0.
wherein X refers to Log of compound concentration and Y refers to % Inhibition.
Table 3 summarize the inhibitory effects of compounds on PDE3A enzyme activity (IC50).
A general note: In fluorescence polarisation assays a small probe gives low polarisation when free and higher when bound to something large.

Structures are written as SMILES. Where only a bound is given, the exact number is not on record here.

recombinant poly(ADP-ribose) polymerase 2 (PARP2), sequence (Q9UGN5 whole entry): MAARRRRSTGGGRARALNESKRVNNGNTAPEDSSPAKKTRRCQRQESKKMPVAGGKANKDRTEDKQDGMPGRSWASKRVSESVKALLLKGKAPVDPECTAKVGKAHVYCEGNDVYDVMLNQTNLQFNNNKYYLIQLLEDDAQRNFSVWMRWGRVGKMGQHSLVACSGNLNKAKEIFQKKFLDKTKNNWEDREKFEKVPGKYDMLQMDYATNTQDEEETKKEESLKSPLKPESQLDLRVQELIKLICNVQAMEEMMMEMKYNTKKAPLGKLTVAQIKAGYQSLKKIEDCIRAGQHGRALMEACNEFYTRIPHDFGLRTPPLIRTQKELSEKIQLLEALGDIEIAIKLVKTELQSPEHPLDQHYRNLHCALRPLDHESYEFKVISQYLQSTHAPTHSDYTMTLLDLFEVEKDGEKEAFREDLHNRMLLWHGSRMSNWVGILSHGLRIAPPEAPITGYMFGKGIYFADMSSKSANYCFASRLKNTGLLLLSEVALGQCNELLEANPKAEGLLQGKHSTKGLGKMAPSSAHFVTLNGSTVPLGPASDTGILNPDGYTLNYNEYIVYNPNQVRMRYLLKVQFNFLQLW

As to `CNC(=O)c1ccc(-n2ncc3c2CN(Cc2ccc4c([nH]c(=O)c5c(C)cnn54)c2F)C3)cn1` [Example 1-2, 5-(5-((6-fluoro-3-methyl-4-oxo-4,5-dihydropyrazolo[1,5-a]quinoxalin-7-yl)methyl)-5,6-dihydropyrrolo[3,4-c]pyrazol-1(4H)-yl)-N-methylpicolinamide], the IC50 in assay [1] is above 1000 nM; in the assay on MDA-MB-436 cells, above 100 nM; at PDE3A, above 25 µM.
As for `CCNC(=O)c1ccc(-n2cc3c(n2)CN(Cc2ccc4c([nH]c(=O)c5c(C)cnn54)c2F)C3)cn1` [Example 6, 5-(5-((6-fluoro-3-methyl-4-oxo-4,5-dihydropyrazolo[1,5-a]quinoxalin-7-yl)methyl)-5,6-dihydropyrrolo[3,4-c]pyrazol-2(4H)-yl)-N-ethylpicolinamide], the IC50 in assay [1] is above 10000 nM; in the assay on MDA-MB-436 cells, 2.07 nM; at PDE3A it was above 30 µM.
The corresponding values for `CNC(=O)c1ccc(-n2cc3c(n2)CN(Cc2ccc4c([nH]c(=O)c5c(F)cnn54)c2F)C3)cn1` [Example 13, 5-(5-((3,6-difluoro-4-oxo-4,5-dihydropyrazolo[1,5-a]quinoxalin-7-yl)methyl)-5,6-dihydropyrrolo[3,4-c]pyrazol-2(4H)-yl)-N-methylpicolinamide] are 42 nM, 0.99 nM and above 30 µM.
With `CNC(=O)c1ccc(-n2cc3c(n2)CN(Cc2ccc4c([nH]c(=O)c5c(F)cnn54)c2F)C3)c(F)n1` [Example 15, 5-(5-((3,6-difluoro-4-oxo-4,5-dihydropyrazolo[1,5-a]quinoxalin-7-yl)methyl)-5,6-dihydropyrrolo[3,4-c]pyrazol-2(4H)-yl)-6-fluoro-N-methylpicolinamide], the results for the IC50 (in assay [1]; with MDA-MB-436 cells; on PDE3A) were 373 nM, 1.36 nM and above 30 µM, respectively.
As for `CNC(=O)c1ccc(-n2cc3c(n2)CN(Cc2ccc4c([nH]c(=O)c5c(F)cnn54)c2F)C3)c(Cl)n1` [Example 16, 5-(5-((3,6-difluoro-4-oxo-4,5-dihydropyrazolo[1,5-a]quinoxalin-7-yl)methyl)-5,6-dihydropyrrolo[3,4-c]pyrazol-2(4H)-yl)-6-chloro-N-methylpicolinamide], the IC50 in assay [1] is 1190 nM; with MDA-MB-436 cells it was 5.65 nM; on PDE3A it was above 30 µM.
With `CCNC(=O)c1ccc(-n2cc3c(n2)CN(Cc2ccc4c([nH]c(=O)c5c(F)cnn54)c2F)C3)c(F)n1` [Example 19, 5-(5-((3,6-difluoro-4-oxo-4,5-dihydropyrazolo[1,5-a]quinoxalin-7-yl)methyl)-5,6-dihydropyrrolo[3,4-c]pyrazol-2(4H)-yl)-N-ethyl-6-fluoropicolinamide], the figures for the IC50 (in assay [1]; in the assay with MDA-MB-436 cells; at PDE3A) were above 10000 nM, 1.57 nM and above 30 µM, respectively.
For the compound `CNC(=O)c1ccc(-n2cc3c(n2)CN(Cc2ccc4c([nH]c(=O)c5occc54)c2F)C3)cn1` [Example 28, 5-(5-((6-fluoro-4-oxo-4,5-dihydrofuro[2,3-c]quinolin-7-yl)methyl)-5,6-dihydropyrrolo[3,4-c]pyrazol-2(4H)-yl)-N-methylpicolinamide], the IC50 in assay [1] was determined as 119 nM; in the assay on MDA-MB-436 cells, 0.76 nM; at PDE3A, 29.4 µM.
On to `CNC(=O)c1ccc(-n2cc3c(n2)CN(Cc2ccc4c([nH]c(=O)c5nn(C)cc54)c2F)C3)cn1` [Example 29, 5-(5-((6-fluoro-2-methyl-4-oxo-4,5-dihydro-2H-pyrazolo[3,4-c]quinolin-7-yl)methyl)-5,6-dihydropyrrolo[3,4-c]pyrazol-2(4H)-yl)-N-methylpicolinamide], for which the IC50 in assay [1] is above 10000 nM; in the assay on MDA-MB-436 cells, 1.57 nM; on PDE3A, above 30 µM.
Take `CNC(=O)c1ccc(-n2cc3c(c2)CN(Cc2ccc4c([nH]c(=O)c5c(C)cnn54)c2F)C3)cn1` [Example 39, 5-(5-((6-fluoro-3-methyl-4-oxo-4,5-dihydropyrazolo[1,5-a]quinoxalin-7-yl)methyl)-5,6-dihydropyrrolo[3,4-c]pyrrol-2(4H)-yl)-N-methylpicolinamide]: the IC50 in the assay with MDA-MB-436 cells is 1.82 nM; on PDE3A, above 30 µM.
In the case of `CNC(=O)c1ccc(-c2nc3c(s2)CN(Cc2ccc4c([nH]c(=O)c5c(F)cnn54)c2F)C3)cn1` [Example 42, 5-(5-((3,6-difluoro-4-oxo-4,5-dihydropyrazolo[1,5-a]quinoxalin-7-yl)methyl)-5,6-dihydro-4H-pyrrolo[3,4-d]thiazol-2-yl)-N-methylpicolinamide], the IC50 in assay [1] is 118 nM; in the assay with MDA-MB-436 cells it was 6.04 nM; at PDE3A, above 30 µM.
On to `CNC(=O)c1ccc(-n2cc3c(c2)CN(Cc2ccc4c([nH]c(=O)c5c(F)cnn54)c2F)C3)cn1` [Example 48, 5-(5-((3,6-difluoro-4-oxo-4,5-dihydropyrazolo[1,5-a]quinoxalin-7-yl)methyl)-5,6-dihydropyrrolo[3,4-c]pyrrol-2(4H)-yl)-N-methylpicolinamide], for which the IC50 in assay [1] was 48 nM; with MDA-MB-436 cells, 0.38 nM; at PDE3A, above 30 µM.
On to `CNC(=O)c1ccc(-n2cc3c(n2)CN(Cc2ccc4c([nH]c(=O)n5cc(C)nc45)c2F)C3)cn1` [Example 49, 5-(5-((7-fluoro-2-methyl-5-oxo-5,6-dihydroimidazo[1,2-c]quinazolin-8-yl)methyl)-5,6-dihydropyrrolo[3,4-c]pyrazol-2(4H)-yl)-N-methylpicolinamide], for which the IC50 is 0.71 nM in the assay with MDA-MB-436 cells and above 30 µM at PDE3A.
For the compound `CNC(=O)c1ccc(-n2cc3c(n2)CN(Cc2ccc4c([nH]c(=O)n5cc(C)nc45)c2F)C3)c(F)n1` [Example 51, 6-fluoro-5-(5-((7-fluoro-2-methyl-5-oxo-5,6-dihydroimidazo[1,2-c]quinazolin-8-yl)methyl)-5,6-dihydropyrrolo[3,4-c]pyrazol-2(4H)-yl)-N-methylpicolinamide], the IC50 was above 10000 nM in assay [1], 1.51 nM in the assay with MDA-MB-436 cells and above 30 µM on PDE3A.
Turning to `CCNC(=O)c1ccc(-n2cc3c(n2)CN(Cc2ccc4c([nH]c(=O)n5cc(C)nc45)c2F)C3)c(F)n1` [Example 52, N-ethyl-6-fluoro-5-(5-((7-fluoro-2-methyl-5-oxo-5,6-dihydroimidazo[1,2-c]quinazolin-8-yl)methyl)-5,6-dihydropyrrolo[3,4-c]pyrazol-2(4H)-yl)picolinamide], the IC50 was 0.92 nM in the assay with MDA-MB-436 cells and above 30 µM at PDE3A.
Regarding `CNC(=O)c1ccc(-n2cc3c(n2)CN(Cc2ccc4c([nH]c(=O)c5occc54)c2F)C3)c(F)n1` [Example 54, 6-fluoro-5-(5-((6-fluoro-4-oxo-4,5-dihydrofuro[2,3-c]quinolin-7-yl)methyl)-5,6-dihydropyrrolo[3,4-c]pyrazol-2(4H)-yl)-N-methylpicolinamide], the IC50 was 255 nM in assay [1], 1.47 nM with MDA-MB-436 cells and above 30 µM on PDE3A.
Turning to `CNC(=O)c1ccc(N2CC3=C(CN(Cc4ccc5c([nH]c(=O)c6c(F)cnn65)c4F)C3)C2)c(F)n1` [Example 58], the IC50 was 2.97 nM in the assay on MDA-MB-436 cells and 2.41 µM on PDE3A.
